Patent publication US11304988B2, “Inhibiting tumor cell migration by inhibition of kinesin light chain 1, variant 1 (KLC1C)” (Northwestern University, priority 2018, dated 2022)
“Also recorded” adds a separate entry of the source.

Tests used:
[1] = tested on: A375 human melanoma cells; test: tumor cell TEM assay, A375 melanoma cells across EC (HUVEC) monolayers; format: cell-based; conditions: for melanoma cell transmigration across endothelial cell monolayers, prostaglandin receptor inhibitors: HUVEC pretreated 1 hour then washed, A375 cells, inhibitor used at 10× its IC50; for melanoma cell TEM in vitro (in words): human melanoma cells across human EC monolayer
Protocol: FIG. 7. Tat-KLC1c peptide blocks tumor cell TEM. A375 human melanoma cells were allowed to transmigrate for 2 hours across EC monolayers pre-incubated (then washed extensively) with Tat-KLC1c or Tat-Scr. The 50% block in TEM is representative of at least 6 independent experiments.
FIG. 10. Platelets modestly increase melanoma cell migration through an LBRC-dependent mechanism. The tumor cell TEM assay was carried out in the presence or absence of human platelets, which were added to the tumor cells at the time of peptide addition and immediately prior to addition to the endothelial cell monolayer. Transmigration proceeded for 2 hours.
FIG. 17. […] HUVEC monolayers were pretreated with 100 nM Tat peptides or the indicated doses of PF-04418948 (EP2 inhibitor) or AAT008 (EP4 antagonist) for 1 hour then washed exten-sively before adding A375 cells. Transmigration proceeded for 2 hours.
FIG. 18. Optimal concentrations of Tat-KLC1c peptide and EP4 antagonist are not additive. Transmigration assays as in FIG. 16 with 100 μM Tat-peptides, 100 nM AAT-008, or both. Mean±S.D. of 6 replicates for each condition. * p<0.0004 vs. Scr; NS vs each other.
(§1) Tumor cells that transmigrate using the LBRC do so without destroying the endothelial cell monolayer. […] The Tat-KLC1c peptide has no effect on the ability of tumor cells to move per se (FIG. 8), nor on tumor cell viability or growth (FIG. 9).

[2] = tested on: A375M melanoma cells; test: A375M transendothelial migration assay; format: cell-based, human; conditions: for lowest concentration with significant effects on tumor cell transmigration / melanoma / tumor cell transmigration with free radical scavengers and anti-oxidants (in words): A375M; for melanoma / tumor cell transmigration with free radical scavengers and anti-oxidants (in words): indicated concentrations, vs. Scr; for inhibition of melanoma cell TEM compared with Tat-KLC1c peptide: at 10 mM, vs optimal concentration of Tat-KLC1c peptide
Protocol: (§2) FIG. 16. […] Data are mean±SD of 6 replicates. *p<0.005 vs. Scr.
FIG. 19. […] A375M transendothelial migration assays were carried out in the presence of Tat-peptides or the indicated concentrations of Trolox or N-acetylcysteine. Data are mean±SD of ≥3 replicates for each condition. *p<0.01 for all inhibitors vs. Scr.

[3] = tested on: neutrophils; test: intravital confocal microscopy of neutrophil transmigration in IL-1β-inflamed cremaster muscle; format: in vivo; conditions: anesthetized mouse; for neutrophil extravasation (cumulative transmigration): postcapillary venules, response to IL-1β, after injection of peptide
Description: FIG. 4. TAT-KLC1c blocks TEM in vivo. In the inflamed cremaster muscle of an anesthetized mouse, fluorescent neutrophils were observed by intravital spinning disc confocal microscopy to transmigrate steadily from postcapillary venules in response to IL-1β.

[4] = tested on: Human umbilical vein endothelial cells; test: in vitro transendothelial migration (TEM) of human monocytes across endothelial cell monolayers; format: cell-based; conditions: endothelial cells incubated 30 minutes with 0.01 μM or 0.1 μM peptide, washed, one hour with human monocytes; compared to untreated
Protocol: FIG. 3. Blocking Kinesin Light Chain 1c function via TAT-KLC1c peptide inhibits transmigration. Human umbilical vein endothelial cells. Endothelial cells were incubated for 30 minutes with either 0 μM (untreated), 0.01 μM, or 0.1 μM TAT-KLC1c peptide (or scrambled TAT-peptide) at 37° C., then washed prior to a one hour incubation with human monocytes. The cells were then washed, fixed, and the percentage of cells transmigrated (% TEM) was quantified. […] Data shown are mean±SEM for 3 experiments. * p<0.01 compared to untreated.
as §2, §1

[5] = tested on: B16F10 melanoma cells; test: Transwell filter migration of tumor cells toward serum-containing medium (B16F10); format: cell-based, mouse; conditions: 100 nM peptide, 12 hours, 8 μM pore size Transwell
Protocol: (§3) FIG. 8. […] 1×10^4 A375 human melanoma cells or 1×10^4 B16F10 melanoma cells were resuspended in serum-free medium and placed in the upper chamber of Transwell filters ([…]) and allowed to migrate in response to serum-containing medium in the bottom chamber in the presence of 100 nM Tat-Scr, Tat-KLC1c or no additives. The total number of tumor cells in the bottom well 12 hours later was enumerated. Data are mean±S.D. for four replicates of each sample.

[6] = tested on: B16F10 melanoma cells; test: growth of B16F10 melanoma cells in culture over two weeks; format: cell-based, mouse; conditions: 100 nM peptide, two-week period
Protocol: FIG. 9. […] Melanoma cells were plated at a density of 1×10^5/ml on 80 mm plates with 100 nM Tat-Scr or Tat-KLC1c. Cells were trypsinized and counted on the indicated days, diluted and 4×10^6 viable cells re-plated in fresh peptide. Total cells in the culture are shown.

[7] = tested on: B16F10 melanoma cells; test: melanoma cell extravasation in lung in vivo after tail vein injection; parameters: species or system mouse; conditions: for visualized tumor cells that had transmigrated: C57Bl/6 mice, peptide 1 hour prior to CFSE-labeled B16F10 via tail vein, sacrificed six hours later
Protocol: FIG. 11. Visualizing melanoma cell extravasation in vivo. Single XY plane from confocal image of CFSE-labeled B16F10 cells in Tat-Scr treated mouse lung 6 hr. after i.v. injection of 10^6 tumor cells. Two tumor cells (arrows) have migrated out of vasculature while another one (arrowhead) remains inside the vessel.
FIG. 12. […] Quantification of block by Tat-KLC1c (Mean±S.D) * p<0.01.
C57Bl/6 mice received KLC1c or scrambled peptide 1 hour prior to receiving carboxyfluorescein (CFSE)-labeled B16F10 melanoma cells via tail vein. They were sacrificed six hours later so that data would reflect the effects on extravasation per se rather than survival or growth (Ref. B10; herein incorporated by reference in its entirety). Immediately prior to sacrifice a fluorescent anti-PECAM antibody was injected i.v. to stain vasculature. Lungs were inflated with 4% paraformaldehyde (PFA) and fixed overnight in PFA, then cryopreserved in sucrose. 100 μm thick frozen sections were cut and examined by spinning disc confocal microscopy with images taken every 1 μm of specimen depth. 30% of visualized tumor cells had transmigrated in the mice receiving scrambled peptide, whereas only ˜9% had transmigrated in mice receiving Tat-KLC1c peptide—a 70% reduction (FIGS. 11,12). […] In a separate experiment, age- and sex-matched C57Bl/6 mice syngeneic to the tumor were randomized to receive Tat-Scr or Tat-KLC1c parenterally at a concentration calculated to achieve 0.1 μM in vivo 1 h. before and 18 h. after receiving 1×10^6 syngeneic B16F10 melanoma cells in 100 μl via tail vein. Lung metastases were enumerated 14 days later under a dissecting microscope. The Tat-KLC1c group had over 90% fewer (FIG. 13, p=0.00204). […] Even though Tat-KLC1c blocks about ⅓ (in vitro) to ⅔ (in vivo) of melanoma extravasation events, the number of metastatic colonies that grow out are disproportionately lower.

[8] = tested on: PMN; test: croton oil acute dermatitis of ear skin, PMN transmigration; format: in vivo, mouse; conditions: i.v. to achieve 0.1 μM in blood, one hour before croton oil; ear skin examined six hours later
Protocol: FIG. 5. TAT-KLC1c blocks TEM in vivo. Mice received TAT-Scr or TAT-KLC1c i.v. at a concentration to achieve 0.1 μM in blood. One hour later, croton oil was applied to mouse ear skin to induce acute dermatitis. Six hours later mice were sacrificed and ear skin examined in whole mount by confocal microscopy. Representative images are shown. In mice receiving Tat-Scr, a mean of 70% of PMN exited the vessels, while in mice receiving Tat-KLC1c, transmigration was decreased to 12%.

[9] = tested on: A375 human melanoma cells; test: Transwell filter migration of tumor cells toward serum-containing medium (A375); format: cell-based; conditions: 100 nM peptide, 12 hours, 8 μM pore size Transwell
Protocol: as §3

[10] = tested on: B16F10 melanoma cells; test: lung metastatic colony formation after tail vein injection of B16F10 cells; format: in vivo, mouse
Protocol: Age- and sex-matched C57Bl/6 mice were injected with Tat-Scr (Scr) or Tat-KLC1c (KLC1c) 1 hr before and 18 hr after injection of 10^6 B16F10 melanoma cells via tail vein. 14 days later lungs were inflated with formalin, and metastases counted. (A) Representative gross photos of lungs from mice that received Tat-Scr (top) and Tat-KLC1c (bottom). Arrows point to some of the metastases. (B) Graphical representation of results. Dots are values for individual mice. (TNTC)=too numerous to count. Lines show mean±S.D., p=0.00204 by ANOVA not including the TNTC data.
C57Bl/6 mice received KLC1c or scrambled peptide 1 hour prior to receiving carboxyfluorescein (CFSE)-labeled B16F10 melanoma cells via tail vein. They were sacrificed six hours later so that data would reflect the effects on extravasation per se rather than survival or growth (Ref. B10; herein incorporated by reference in its entirety). Immediately prior to sacrifice a fluorescent anti-PECAM antibody was injected i.v. to stain vasculature. […] In a separate experiment, age- and sex-matched C57Bl/6 mice syngeneic to the tumor were randomized to receive Tat-Scr or Tat-KLC1c parenterally at a concentration calculated to achieve 0.1 μM in vivo 1 h. before and 18 h. after receiving 1×10^6 syngeneic B16F10 melanoma cells in 100 μl via tail vein. […]

## C[C@H](NC(=O)c1cc(Cl)cnc1Oc1cccc(F)c1)c1ccc(C(=O)O)cc1 [AAT-008, reference compound]
[1]; 2 hours
  melanoma cell transmigration across endothelial cell monolayers, prostaglandin receptor inhibitors: block melanoma cell transmigration
[1]; 2 hours, listed as AAT008
  melanoma cell transmigration across endothelial cell monolayers, prostaglandin receptor inhibitors: blocks melanoma transmigration
[1]; vs Tat-KLC1c at its optimal concentration
  block to melanoma cell transmigration compared with Tat-KLC1c: as effective as using Tat-KLC1c at its optimal concentration

## CC(=O)N[C@@H](CS)C(=O)O [N-acetylcysteine]
[2]
  lowest concentration with significant effects on tumor cell transmigration: 100 µM
  melanoma / tumor cell transmigration with free radical scavengers and anti-oxidants (in words): reduces tumor cell transmigration in a dose-dependent manner; also recorded: inhibit melanoma transmigration
  inhibition of melanoma cell TEM compared with Tat-KLC1c peptide: as effectively as the optimal concentration of Tat-KLC1c peptide

## Cc1c(C)c2c(c(C)c1O)CCC(C)(C(=O)O)O2 (stereo not shown) [Trolox, 6-hydroxy-2,5,7,8-tetramethylchroman-2-carboxylic acid]
[2]
  lowest concentration with significant effects on tumor cell transmigration: 100 µM
  melanoma / tumor cell transmigration with free radical scavengers and anti-oxidants (in words): reduces tumor cell transmigration in a dose-dependent manner; also recorded: inhibit melanoma transmigration
  inhibition of melanoma cell TEM compared with Tat-KLC1c peptide: as effectively as the optimal concentration of Tat-KLC1c peptide

## Tat-KLC1c: 11-amino acid basic region from HIV Tat protein, glycine tripeptide linker, C-terminal decapeptide of KLC1c (MRKMKLGLVN); SEQ ID NO: 8 (YGRKKRRQRRRGGGMRKMKLGLVN)
[3]; IL-1β-inflamed cremaster
  time after injection until cumulative transmigration began to plateau: ≤ 10 min
[3]
  neutrophil extravasation (cumulative transmigration): markedly inhibited
[4]
  percentage of cells transmigrated (% TEM): significantly decreased TEM
[5]
  tumor cell migration, total number of tumor cells in the bottom well: no direct effect
[6]
  tumor cell viability or growth (total cells in the culture): no effect; also recorded: does not affect growth
[7]; lung
  visualized tumor cells that had transmigrated: ~9%
[7]; FIG. 12 quantification
  melanoma extravasation (in words): blocks melanoma extravasation
[7]; Tat-KLC1c vs scrambled peptide, six hours, lung
  reduction of transmigrated tumor cells: 70%
[7]; in vivo
  melanoma extravasation events blocked (in vivo): ⅔
[1]; EC monolayers pre-incubated with peptide then washed, 2 hours, vs Tat-Scr, representative of at least 6 experiments
  block in TEM: 50%
[1]; FIG. 10 experiment, without platelets, 2 hours, vs. scr
  reduction of tumor cell TEM: 33%
[1]
  melanoma cell TEM in vitro (in words): significantly blocks
[1]; human platelets added to tumor cells, 2 hours
  additional TEM in the presence of platelets: blocked; also recorded: down to the same level
[1]; in vitro
  melanoma extravasation events blocked (in vitro): about ⅓
[8]
  mean PMN exited the vessels (transmigration): 12%
[9]
  tumor cell migration, total number of tumor cells in the bottom well: no direct effect
[10]; 0.1 μM in vivo, 1 h before and 18 h after 1×10^6 B16F10 cells via tail vein, 14 days later
  fewer lung metastases than Tat-Scr group: over 90%
[10]; C57Bl/6 mice, B16F10, 14 days
  metastatic colony formation (in words): significantly blocked the establishment of metastatic colonies; also recorded: prevents metastatic colony formation

## Tat-Scr: negative control peptide contains the same ten amino acids in a random order (scrambled, Scr); SEQ ID NO: 9 (YGRKKRRQRRRGGGGKLNKMVMLR) [reference compound]
[3]
  neutrophil extravasation (cumulative transmigration): no effect
[4]
  percentage of cells transmigrated (% TEM): not
[5]
  tumor cell migration, total number of tumor cells in the bottom well: no significant differences
[7]; lung
  visualized tumor cells that had transmigrated: 30%
[1]
  melanoma cell TEM in vitro (in words): no effect
[8]
  mean PMN exited the vessels (transmigration): 70%
[9]
  tumor cell migration, total number of tumor cells in the bottom well: no significant differences
